This is an account of results in paper PMC7072103, “Simultaneous Determination of 13 Constituents of Radix Polygoni Multiflori in Rat Plasma and Its Application in a Pharmacokinetic Study” (International Journal of Analytical Chemistry, 2020).

In general, Cmax refers to the highest concentration seen after dosing. What is called Tmax is the time from dosing to the highest level.

“Also recorded” adds a separate entry of the source. Where two headings read alike, the source gives them in different places.

The nature of the data set: Pharmacokinetic study in rats after oral administration of RPM extract (UPLC-MS/MS of plasma). As to conditions: for Detection in rat plasma after oral RPM extract: real plasma samples; for Detection in rat plasma after oral RPM extract / Latest plasma sample time at which the constituent was detected: RPM extract 36 g/kg oral; for Latest plasma sample time at which the constituent was detected: sampling up to 24 h. In kind it is in vivo, Sprague-Dawley rats. As to the method: The analysis was performed on an AB Sciex API 5500 Q Trap mass spectrometer (Toronto, Canada), interfaced with a Waters Acquity UPLC separation module. Empower 3.0 and Analyst 1.62 software were used to control UPLC and mass spectrometer, respectively.
Chromatographic separation was achieved on a waters HSS C18 column (100 × 2.1 mm, 1.8 μm, kept at 40°C) using a mobile phase containing 0.025% formic acid that consisted of solvent A (water) and solvent B (acetonitrile). The mobile phase was delivered at 0.3 mL/min, and a gradient program was used as follows: 0-1 min, held 5% to 25% solvent B; 1–3.5 min, linear gradient from 25% to 35% solvent B; 3.5–5 min, linear gradient from 35% to 40% solvent B; 5-6 min, linear gradient from 40% to 60% solvent B; 6-6.1 min, linear gradient from 60% to 95% solvent B; 6.1–8 min, linear gradient from 95% to 100% solvent B; and 8-9 min, held 5% solvent B.
The MS detection was set in positive multiple reaction monitoring (MRM) mode for the analytes and IS. The turbo spray temperature was maintained at 500°C. The nebulizer gas (gas 1), heater gas (gas 2), and curtain gas was set at 45, 50, and 45 psi, respectively. The interface heater was on. The precursor ion, corresponding product ion and dwell time along with declustering potential (DP), entrance potential (EP), collision energy (CE), and collision exit potential (CXP) for each compound were optimized with standard substance. The dwell time was 50 ms for all analytes. The EP and CXP were set at –10 V and −16 V, respectively.
Sample preparations were made using the protein precipitation process. 50 μL thawed plasma, 10 μL IS working solution (puerarin 10 μg/mL), and 150 μL acetonitrile were added to a 1.5 mL tube in that order. After vortexed for 5 min and centrifuged at 12,000 g for 5 min at 4°C, 150 μL of the supernatant was transferred and a 5 μL was injected into the UPLC-MS/MS instrument for analysis.
Male Sprague-Dawley rats (200–240 g) were obtained from Beijing Vital River Laboratory Animal Technology Co., Ltd. (Beijing, China) (SCXK 2016(jing)-0006). The animals were maintained in SPF animal room at temperature 22 ± 2°C, 60 ± 5% humidity, and 12/12 h day/night cycle. All procedures were approved by the Institutional Animal Ethics Committee and performed in accordance with the Regulations of Experiment Animal Administration issued by the State Committee of Science and Technology of China. RPM extract suspended in an equal volume of 5% CMC-Na solution and orally administered to the six rats at a single dose of 36 g/kg (dose calculated as grams of crude materials used to create the extract per kilogram of rat body weight). The dose was set at a subtoxic level to investigate the pharmacokinetic profiles of the constituents of RPM and were approximately 72 times the upper dose (6 g/day) of human recommended by the 2015 edition of Chinese Pharmacopoeia (converted to rat dose based on body surface area conversion). The calculated doses of compounds based on the contents in the extract were 7.38, 14.8, 13.7, 8.82, 15.5, 11.2, 55.8, 1.08, 1170, 11.3, 25.7, 131.4, and 13.0 mg/kg for chrysophanol, emodin, aloe-emodin, rhein, physcion, questin, citreorosein, questinol, TSG, TG, CG, EG, and PG, respectively. Rats were fasted for at least 12 h before the experiments and had free access to water. Blood samples (∼0.25 mL) were collected from the retinal venous plexus into heparinized 1.5 mL polythene tubes before administration and 5, 15, and 30 min and 1, 2, 4, 6, 8, 12, and 24 h after dosing RPM extract at dose of 36 g/kg. The plasma was immediately separated from blood samples and stored frozen at −70°C until analysis.
The pharmacokinetic parameters were calculated using the pharmacokinetic software Phoenix® WinNonlin®, version 7.0 (Scientific Consulting Inc., Apex, NC, USA). The peak plasma concentration (Cmax) and time to reach Cmax (Tmax) were read directly from the experimental data. […]

Setting [1] is: male, Sprague-Dawley, rat, plasma, po, 36 g/kg, rat plasma, single oral dose of RPM extract 36 g/kg, n = 6, mean ± SD, read-out: AUC0–t.
Where [2] appears, read: male, Sprague-Dawley, rat plasma, single oral dose of RPM extract 36 g/kg, n = 6, mean ± SD, read-out: AUC0–∞.
[3] abbreviates: male, Sprague-Dawley, rat plasma, single oral dose of RPM extract 36 g/kg, n = 6, mean ± SD, read-out: Cmax.
The mark [4] stands for this setting: male, Sprague-Dawley, rat plasma, single oral dose of RPM extract 36 g/kg, n = 6, mean ± SD, read-out: MRT0–∞.
The mark [5] stands for this setting: male, Sprague-Dawley, rat plasma, single oral dose of RPM extract 36 g/kg, n = 6, mean ± SD, read-out: Tmax.
Where [6] appears, read: male, Sprague-Dawley, rat plasma, single oral dose of RPM extract 36 g/kg, n = 6, mean ± SD, read-out: t1/2 (converted).
Setting [7] is: male, Sprague-Dawley, rat, in vivo, po, 36 g/kg.

Take `COc1cc(O)cc2c1C(=O)c1c(O)cc(C)cc1C2=O` [Questin, questin]: the “Detection in rat plasma after oral RPM extract” value (“Detection in rat plasma” below) is reported as “not detected; also recorded: too low to be detected”.
Consider `COc1cc(O[C@@H]2O[C@H](CO)[C@@H](O)[C@H](O)[C@H]2O)c2c(O)c(C(C)=O)c(C)cc2c1` [TG, torachrysone-8-O-glucoside], for which, under setting [1], the AUC(0-t) came to 21.2 ± 7.38 ng·h/mL. The AUC(0-inf) under setting [2] came to 21.7 ± 7.48 ng·h/mL. Besides, the peak concentration (Cmax) under setting [3] stood at 18.7 ± 4.06 ng/mL. The MRT inf under setting [4] amounted to 2.1 ± 0.24 h. Moreover, the Tmax under setting [5] came to 6.6 ± 4.2 min. In addition, the half-life under setting [6] is 120 ± 37.8 min.
On to `O=C(O)c1cc(O)c2c(c1)C(=O)c1cccc(O)c1C2=O` [Rhein, rhein], for which the “Latest plasma sample time at which the constituent was detected” value is listed as at most 2 h. Further, under setting [1], the AUC(0-t) was found to be 1.11 ± 0.63 ng·h/mL. For the same molecule, under setting [2], the AUC(0-inf) came out at 2.31 ± 0.51 ng·h/mL. In addition, under setting [3], the Cmax is 1.06 ± 0.24 ng/mL. The MRT inf under setting [4] was 1.83 ± 0.56 h. In addition, under setting [5], the Tmax is 27.6 ± 6 min. Besides, under setting [6], the half-life was 70.8 ± 23.4 min.
In the case of `Cc1cc(O)c2c(c1)C(=O)c1cccc(O)c1C2=O` [Chrysophanol, chrysophanol], the “Latest plasma sample time at which the constituent was detected” value is at most 6 h. Moreover, the AUC(0-t) under setting [1] is 4.28 ± 1.64 ng·h/mL. The AUC(0-inf) under setting [2] stood at 10.3 ± 1.87 ng·h/mL. Under setting [3], the Cmax was determined as 1.9 ± 0.56 ng/mL. The MRT inf under setting [4] was found to be 6.76 ± 2.06 h. Also, the Tmax under setting [5] turned out to be 133 ± 106 min. Moreover, the half-life under setting [6] was 191 ± 37.2 min.
Regarding `COc1cc(O)c2c(c1)C(=O)c1cc(C)cc(O)c1C2=O` [Physcion, physcion], the “Detection in rat plasma” value is “not detected”. The “Detection in rat plasma” value (listed as physcion) is recorded as “too low to be detected”.
On to `O=C1c2cc(O)cc(O)c2C(=O)c2c(O)cc(CO)cc21` [Citreorosein, 1,3,8-trihydroxy-6-(hydroxymethyl)anthracene-9,10-dione], for which the “Relative bioavailability versus emodin (AUC0–t normalized by molecular weight and dose)” value (male, Sprague-Dawley, rat, in vivo, po) was 15.8%. In addition, under setting [7], the “AUC0–t” value turned out to be 131 ± 96.9 ng·h/mL, the “AUC0–t relative to that of emodin” value is recorded as 6.0 fold, the AUC(0-inf) is 134 ± 96.4 ng·h/mL and the concentration peaked (Cmax) at 149 ± 147 ng/mL. Under setting [7], the MRT inf was 5.32 ± 1.85 h, the Tmax amounted to 11.4 ± 5.4 min and the half-life was 238 ± 78.6 min. The AUC(0-t) (male, Sprague-Dawley, rat, in vivo, po, 36 g/kg, AUC0–t) came out at 134 ± 96.4 ng·h/mL.
`OC[C@H]1O[C@@H](Oc2c(O)cc(O)cc2/C=C/c2ccc(O)cc2)[C@H](O)[C@@H](O)[C@@H]1O` [TSG, 2,3,5,4′-tetrahydroxystilbene-2-O-β-D-glucoside]: the AUC(0-t) under setting [1] was determined as 1870 ± 554 ng·h/mL. The AUC(0-inf) under setting [2] was determined as 1870 ± 581 ng·h/mL. In addition, under setting [3], the Cmax was determined as 1740 ± 401 ng/mL. The MRT inf under setting [4] came to 3.66 ± 0.97 h. Further, the Tmax under setting [5] was 19.8 ± 7.8 min. The half-life under setting [6] is 359 ± 157 min. Also, the “AUC0–t” value (rat plasma, single oral dose of RPM extract 36 g/kg, n = 6, mean ± SD) is 1811 ± 554 ng·h/mL.
